Data reported in patent US20220133688A1, “MACROCYCLIC LACTONE ANTHELMINTICS AGAINST NEMATODES” (Bayer Animal Health GmbH, priority 2019, published 2022).
“And” between values parts separate entries of the source, which are not always exact repeats. Identical values can stand only once. Like-named read-outs stand apart in the source and are kept apart here.

Tests used:
[1] = test system: D. immitis Mf, Yazoo-2013 strain (resistant); experiment: Cell attachment assay (canine PMN or PBMC attachment to Mf), Yazoo-2013 isolate; type: cell-based, Dirofilaria immitis
[2] = test system: D. immitis Mf, Metairie-2014 strain (resistant); experiment: Cell attachment assay (canine PMN or PBMC attachment to Mf), Metairie-2014 isolate; type: cell-based, Dirofilaria immitis; settings: for lowest drug concentration at which a statistically significant increase (p = <0.05) in cell attachment was observed compared to the no-drug control: 2-way ANOVA

Row | Compound | Percentage (±SEM) of Mf with cells attached [1] | drug concentration causing a significant increase in cell attachment [1] [nM] | lowest drug concentration at which a statistically significant increase (p = <0.05) in cell attachment was observed compared to the no-drug control [1] [nM] | Percentage (±SEM) of Mf with cells attached [2] | drug concentration required for a significant increase in cell attachment [2] [µM] | increase in attachment of PBMCs at any concentration [2] | Percentage (±SEM) of Mf with cells attached ([1]; PBMC, 1 μM drug, Yazoo-2013 Mf) [%] | lowest drug concentration at which a statistically significant increase (p = <0.05) in cell attachment was observed compared to the no-drug control ([1]; PBMC, 40 h, Yazoo-2013 Mf, 2-way ANOVA) [nM] | Percentage (±SEM) of Mf with cells attached ([1]; PMN, 1 μM drug, Yazoo-2013 Mf) [%] | lowest drug concentration at which a statistically significant increase (p = <0.05) in cell attachment was observed compared to the no-drug control ([1]; PMN, 24 h, Yazoo-2013 Mf, 2-way ANOVA) [nM] | drug concentration causing a significant increase in cell attachment ([1]; PMNs and PBMCs, Yazoo-2013 Mf) [nM] | Percentage (±SEM) of Mf with cells attached ([2]; PBMC, 1 μM drug, Metairie-2014 Mf) [%] | lowest drug concentration at which a statistically significant increase (p = <0.05) in cell attachment was observed compared to the no-drug control ([2]; PBMC, 40 h, Metairie-2014 Mf) [nM] | Percentage (±SEM) of Mf with cells attached ([2]; PMN, 1 μM drug, Metairie-2014 Mf) [%] | lowest drug concentration at which a statistically significant increase (p = <0.05) in cell attachment was observed compared to the no-drug control ([2]; PMN, 24 h, Metairie-2014 Mf) [nM]
1 | CC[C@H](C)[C@H]1O[C@]2(CC[C@@H]1C)C[C@@H]1C[C@@H](C/C=C(\C)[C@@H](O[C@H]3C[C@H](OC)[C@@H](O[C@H]4C[C@H](OC)[C@@H](O)[C@H](C)O4)[C@H](C)O3)[C@@H](C)/C=C/C=C3\CO[C@@H]4[C@H](O)C(C)=C[C@@H](C(=O)O1)[C@]34O)O2 [IVM, ivermectin] | 25 ± 5% and 18 ± 4% | 100 to 300 | 100 | 13% and 10% and 13 ± 3% and 10 ± 2% | ≥ 1 | no significant increase | – | – | – | – | – | – | – | – | –
2 | CO/N=C1\C[C@]2(C[C@@H]3C[C@@H](C/C=C(\C)C[C@@H](C)/C=C/C=C4\CO[C@@H]5[C@H](O)C(C)=C[C@@H](C(=O)O3)[C@]45O)O2)O[C@H](/C(C)=C/C(C)C)[C@H]1C [MOX, moxidectin] | – | – | – | – | – | – | 19 ± 3 | 10 | 28 ± 5 | 3 | 3 to 10 | 49 ± 8 | 1 | 42 ± 6 | 10
